The test system of data set [1] is T. brucei brucei AnTat 1.9. Description: In vitro antitrypanosomal activity, Alamar Blue assay. Format: cell-based. The conditions noted are these: for Selectivity index HepG2/Tryp.: SI = CC50 HepG2 / IC50 Trypanosoma brucei brucei; for IC50: Trypanosoma brucei, slender bloodstream trypomastigotes, AnTat 1.9 strain, read-out: Trypanosoma brucei brucei IC50 values, Trypanos Antat 1.9. As for the experimental part: The effects of the tested compounds on the growth of T. brucei brucei were assessed using an Alamar Blue® assay described by Räz et al.[49] T. brucei brucei AnTat 1.9 (IMTA, Antwerpen, Belgium) was cultured in MEM with Earle’s salts, supplemented according to the protocol of Baltz et al.[50] with the following modifications: 0.5 mM mercaptoethanol (Sigma Aldrich), 1.5 mM L-cysteine (Sigma Aldrich), 0.05 mM bathocuproine sulphate (Sigma Aldrich), and 20% heat-inactivated horse serum (Gibco, France) at 37 °C and 5% CO2. Samples were incubated at an average density of 2000 parasites/well in sterile 96-wells plates (Fisher, France) with various concentrations of compounds dissolved in 0.9% NaCl. All doses were tested in duplicate. Appropriate controls treated with solvents 0.9% NaCl or DMSO or with suramin, pentamidine, eflornithine, and fexinidazole (reference drugs purchased from Sigma Aldrich and Fluorochem, UK) were added to each set of experiments. After 69 h incubation period at 37 °C, 10 µl of the viability marker Alamar Blue (Fisher) was added to each well, and the plates were incubated for 5 h. The plates were read in a PerkinElmer ENSPIRE (Germany) microplate reader using an excitation wavelength of 530 nm and an emission wavelength of 590 nm. […] IC50 values were calculated using a nonlinear regression analysis of dose-response curves performed using GraphPad Prism software (La Jolla, CA). IC50 values were calculated from three independent experiments.
(In general: Resazurin is reduced to fluorescent resorufin, in cell work by metabolically active cells.)

Data set [2] is described as follows: Cytotoxicity evaluation, MTT. To be noted: human. The data set is classed as cell-based, human. As for the experimental part: These cells are a commonly used human hepatocarcinoma-derived cell line that has characteristics similar to those of primary hepatocytes. These cells express many hepatocyte-specific metabolic enzymes, thus enabling the cytotoxicity of tested product metabolites to be evaluated. […] Duplicate assays were performed for each sample. Each well was microscopically examined for precipitate formation before the medium was aspirated from the wells. After aspiration, 100 µl of MTT solution (0.5 mg/ml in medium without FCS) were then added to each well. […] The MTT solution was removed, and DMSO (100 µl) was added to dissolve the resulting blue formazan crystals. Plates were shaken vigorously (300 rpm) for 5 min. The absorbance was measured at 570 nm with 630 nm as reference wavelength in a BIO-TEK ELx808 Absorbance Microplate Reader. DMSO was used as blank and doxorubicin (Sigma Aldrich) as positive control. Cell viability was calculated as percentage of control (cells incubated without compound). The CC50 was determined from the dose-response curve using the TableCurve 2D version 5.0 software (Systat Software, San Jose, CA)

In data set [3] the test system is P. falciparum CQ-sensitive strain 3D7. Description: In vitro antiplasmodial activity, SYBR Green I fluorescence-based method, strain 3D7. To be noted: for IC50: Plasmodium falciparum, chloroquine-sensitive strain 3D7, 48 h incubation, read-out: P. falciparum strains IC50 values, 3D7; for Selectivity index HepG2/3D7: SI = CC50 HepG2 / IC50 P. falciparum 3D7. The data set is classed as cell-based. As for the experimental part:
The in vitro antiplasmodial activities were tested over concentrations ranging from […] against culture-adapted P. falciparum reference strains 3D7 and W2. […] The parasites were cultivated in RPMI medium (Sigma-Aldrich, Lyon, France) supplemented with 0.5% Albumax I (Life Technologies Corporation, Paisley, UK), hypoxanthine (Sigma-Aldrich), and gentamicin (Sigma-Aldrich) with human erythrocytes and were incubated at 37 °C in a candle jar, as described previously[43] .The P. falciparum drug susceptibility test was carried out in 96-well flat-bottom sterile plates in a final volume of 250 µl. After 48 h incubation period with the drugs, quantities of DNA in treated and control cultures of parasites in human erythrocytes were quantified using the SYBR Green I (Sigma-Aldrich) fluorescence-based method[44]^,[45]. Briefly, after incubation, plates were frozen at −20 °C until use. Plates were then thawed for 2 h at room temperature, and 100 µl of each homogenised culture was transferred to a well of a 96-well flat-bottom sterile black plate (Nunc, Inc., Rochester, NY) that contained 100 µl of the SYBR Green I lysis buffer (2xSYBR Green, 20 mM Tris base pH 7.5, 5 mM EDTA, 0.008% w/v saponin, 0.08% w/v Triton X-100). […] Plates were incubated for 1 h at room temperature and then read on a fluorescence plate reader (Tecan, Grödig, Austria) using excitation and emission wavelengths of 485 and 535 nm, respectively. IC50 values were calculated by non-linear regression analysis of data from dose-response curves, using TableCurve 2D version 5.0 software (Systat Software, San Jose, CA). IC50 values are reported as means calculated from three independent experiments.

Data set [4] has as its system L. donovani (MHOM/IN/00/DEVI) promastigotes. In words: In vitro antileishmanial activity, MTT assay on promastigotes. The conditions noted are these: Leishmania donovani, 72 h incubation, ≥10 = no activity noted at the highest concentration tested. Format: cell-based. As to the method:
L. donovani (MHOM/IN/00/DEVI) used in this study was provided by the CNR Leishmania (Montpellier, France). The effects of the tested compounds on the growth of L. donovani (MHOM/IN/00/DEVI) promastigotes were assessed by MTT assay. Briefly, promastigotes in log-phase in Schneider’s medium supplemented with 20% foetal calf serum (FCS), 2 mM L-glutamine and antibiotics (100 U/ml penicillin and 100 µg/ml streptomycin), were incubated at an average density of 10^6 parasites/ml in sterile 96-well plates with various concentrations of compounds dissolved in DMSO (final concentration less than 0.5% v/v), in duplicate. Appropriate controls treated with DMSO and amphotericin B (reference drug purchased from Sigma-Aldrich) were added to each set of experiments. After 72 h incubation period at 27 °C, parasite metabolic activity was determined. Each well was microscopically examined for precipitate formation. To each well was added 20 µl of 5 mg/ml MTT [3–(4,5-dimethylthiazol-2-yl)-2,5-diphenyltetrazolium bromide)] solution followed by 4 h incubation time. The enzyme reaction was stopped by addition of 100 µl of 50% isopropanol/10% sodium dodecyl sulfate. Plates were vigorously shaken (300 rpm) for 10 min, and the absorbance was measured at 570 nm in a BIO-TEK ELx808 Absorbance Microplate Reader. […] IC50 of the parasite’s growth (half maximal inhibitory concentration or IC50 values) were then calculated from the obtained experimental results using a previously described regression programme.
On the technique in general: Tetrazolium dyes change colour on reduction, which living cells bring about.

Molecules are shown by their SMILES. Like-named read-outs stand apart in the source and are kept apart here.

Broadly, the IC50 is the concentration needed to halve the response being measured. The CC50 is the concentration giving 50% cytotoxicity.

On to `COc1ccc2c(-c3ccc(CNCCCN(C)C)cc3)nc(-c3ccc(CNCCCN(C)C)cc3)nc2c1` [Compound 3n, 7-Methoxy-2,4-bis{4-[(3-dimethylaminopropyl)aminomethyl]phenyl}quinazoline], for which, in data set [1], the “Selectivity index HepG2/Tryp.” value was 2.58 and the IC50 amounted to 1050 ± 58 nM. For the same compound, half-maximal cytotoxicity in data set [2] (CC50 at 72 h) was put at 2710 ± 300 nM. In data set [3], the IC50 came to 2520 ± 237 nM and the “Selectivity index HepG2/3D7” value was 1.08. Further, the IC50 in data set [4] was not below 10000 nM.
As for `CN1CCN(CCCNCc2ccc(-c3nc(-c4ccc(CNCCCN5CCN(C)CC5)cc4)c4ccccc4n3)cc2)CC1` [Compound 3e, 2,4-Bis{4-[(3–(4-methylpiperazin-1-yl)propyl)aminomethyl]phenyl}quinazoline], in data set [1], the “Selectivity index HepG2/Tryp.” value is 6.64 and the IC50 stood at 2390 ± 129 nM. The compound further showed a CC50 at 72 h in data set [2] of 15900 ± 1700 nM. In data set [3], the IC50 came out at 1520 ± 172 nM and the “Selectivity index HepG2/3D7” value was 10.44. The compound also came in with an IC50 in data set [4] not below 10000 nM.
Consider `CN1CCN(CCCNCc2cccc(-c3cc(-c4cccc(CNCCCN5CCN(C)CC5)c4)c4ccccc4n3)c2)CC1` [Compound 1r, 2,4-Bis{3-[(3–(4-methylpiperazin-1-yl)propyl)aminomethyl]phenyl}quinoline], for which the “Selectivity index HepG2/Tryp.” value in data set [1] is reported as 3.65. The half-inhibitory concentration (IC50) in data set [1] is 1360 ± 194 nM; in data set [3] it was 1950 ± 774 nM; in data set [4], not below 10000 nM. This compound came in with a CC50 at 72 h in data set [2] of 4970 ± 300 nM. In data set [3], the “Selectivity index HepG2/3D7” value is listed as 2.55.
For the compound `NCCCC(N)(C(=O)O)C(F)F` (centres unmarked) [Eflornithine, reference compound], in data set [1], the IC50 came to 15200 ± 640 nM.
As for `CN(C)CCCCNCc1ccc(-c2nc(-c3ccc(CNCCCCN(C)C)cc3)c3ccccc3n2)cc1` [Compound 3a, 2,4-Bis{4-[(4-dimethylaminobutyl)aminomethyl]phenyl}quinazoline], in data set [1], the “Selectivity index HepG2/Tryp.” value was found to be 4.70 and the IC50 turned out to be 900 ± 54 nM. In data set [2], it took 4230 ± 400 nM to reach half-maximal cytotoxicity (CC50 at 72 h). For the same compound, in data set [3], the IC50 was 2150 ± 106 nM and the “Selectivity index HepG2/3D7” value is listed as 1.96. Also, in data set [4], the IC50 was not below 10000 nM.
Take `CN(C)CCNCc1ccc(-c2nc(-c3ccc(CNCCN(C)C)cc3)c3ccccc3n2)cc1` [Compound 3c, 2,4-Bis{4-[(2-dimethylaminoethyl)aminomethyl]phenyl}quinazoline]: in data set [1], the “Selectivity index HepG2/Tryp.” value was determined as 10.72 and the IC50 stood at 1480 ± 178 nM. The compound also yielded a CC50 at 72 h in data set [2] of 15900 ± 1700 nM. Also, in data set [3], the IC50 stood at 1060 ± 103 nM and the “Selectivity index HepG2/3D7” value is listed as 14.97. In data set [4], this compound registered an IC50 not below 10000 nM.
As for `c1ccc2c(-c3ccc(CNCCN4CCOCC4)cc3)cc(-c3ccc(CNCCN4CCOCC4)cc3)nc2c1` [Compound 1h, 2,4-Bis{4-[(2-morpholinoethyl)aminomethyl]phenyl}quinoline], in data set [1], the “Selectivity index HepG2/Tryp.” value is given as 2.83 and the IC50 amounted to 1590 ± 71 nM. The same compound gave a CC50 at 72 h in data set [2] of 4500 ± 400 nM. For the same compound, in data set [3], the IC50 turned out to be 1340 ± 173 nM and the “Selectivity index HepG2/3D7” value came to 3.36. Moreover, the IC50 in data set [4] is not below 10000 nM.
For `CSc1ccc(OCc2ncc([N+](=O)[O-])n2C)cc1` [Fexinidazole, reference compound], the IC50 in data set [1] amounted to 590 ± 39 nM.
For `CN(C)CCCCNCc1ccc(-c2cc(-c3ccc(CNCCCCN(C)C)cc3)c3ccccc3n2)cc1` [Compound 1a, 2,4-Bis{4-[(4-dimethylaminobutyl)aminomethyl]phenyl}quinoline], in data set [1], the “Selectivity index HepG2/Tryp.” value came to 7.03 and the IC50 came to 840 ± 33 nM. Moreover, the midpoint of cytotoxicity in data set [2], the CC50 at 72 h, lay at 5910 ± 1500 nM. Also, in data set [3], the IC50 was found to be 4080 ± 488 nM and the “Selectivity index HepG2/3D7” value was determined as 1.45. This compound showed an IC50 in data set [4] not below 10000 nM.
For `CN(C)CCCNCc1cccc(-c2cc(-c3cccc(CNCCCN(C)C)c3)c3ccccc3n2)c1` [Compound 1q, 2,4-Bis{3-[(3-dimethylaminopropyl)aminomethyl]phenyl}quinoline], the “Selectivity index HepG2/Tryp.” value in data set [1] is 5.18. Also, the IC50 in data set [1] is 1300 ± 101 nM; in data set [3] it was 1440 ± 128 nM; in data set [4] it was not below 10000 nM. In data set [2], this compound showed a CC50 at 72 h of 6740 ± 700 nM. In data set [3], the “Selectivity index HepG2/3D7” value is listed as 4.68.
On to `Cc1ccc(C(=O)Nc2ccc(S(=O)(=O)O)c3cc(S(=O)(=O)O)cc(S(=O)(=O)O)c23)cc1NC(=O)c1cccc(NC(=O)Nc2cccc(C(=O)Nc3cc(C(=O)Nc4ccc(S(=O)(=O)O)c5cc(S(=O)(=O)O)cc(S(=O)(=O)O)c45)ccc3C)c2)c1` [Suramine, reference compound], for which the IC50 in data set [1] stood at 30 ± 3 nM.
Compound `C[C@@H]1[C@H](O)[C@@H](C)/C=C/C=C/C=C/C=C/C=C/C=C/C=C/[C@H](O[C@@H]2O[C@H](C)[C@@H](O)[C@H](N)[C@@H]2O)C[C@@H]2O[C@](O)(C[C@@H](O)C[C@@H](O)[C@H](O)CC[C@@H](O)C[C@@H](O)CC(=O)O[C@H]1C)C[C@H](O)[C@H]2C(=O)O` [Amphotericin B, reference compound] had an IC50 in data set [4] of 100 ± 40 nM.
For `CN1CCN(CCCCNCc2ccc(-c3cc(-c4ccc(CNCCCCN5CCN(C)CC5)cc4)c4ccccc4n3)cc2)CC1` [Compound 1d, 2,4-Bis{4-[(4–(4-methylpiperazin-1-yl)butyl)aminomethyl]phenyl}quinoline], in data set [1], the “Selectivity index HepG2/Tryp.” value is recorded as 6.32. In addition, the IC50 in data set [1] is 1220 ± 121 nM; in data set [3], 690 ± 70 nM; in data set [4] it was not below 10000 nM. Half-maximal cytotoxicity in data set [2] (CC50 at 72 h) was put at 7710 ± 400 nM. For the same compound, the “Selectivity index HepG2/3D7” value in data set [3] turned out to be 11.17.
For `COc1cccc2c1C(=O)c1c(O)c3c(c(O)c1C2=O)C[C@@](O)(C(=O)CO)C[C@@H]3O[C@H]1C[C@H](N)[C@H](O)[C@H](C)O1` [Doxorubicin, reference compound], in data set [2] (HepG2 cells, 72 h, read-out: Cytotoxicity to HepG2 cells CC50 values), the CC50 at 72 h was determined as 60 ± 20 nM.
